Laboratory results: patent US20030022923A1, “Methods for treatment of sickle cell anemia” (Medinox, Inc., priority 2001, published 2003)

How the values were obtained:
hemoglobin S = hemoglobin S (Homo sapiens, UniProt P68871+P69905, E7V); details: in solution and in intact red cells; cited from earlier work
[1] = orally administered; extensive metabolism in the intestines and liver; cited from earlier work
[2] = Pharmacokinetic study of vanillin-thiazolidine adduct and vanillin by oral administration in rats (vanillin in blood by HPLC); format: in vivo, Sprague-Dawley rats; details: oral gavage, blood concentration-time curves 2-180 min
Procedure: Sixteen Sprague-Dawley rats (male, 200-300 g) were catheterized at the carotid at least 12 hours before drug administration and the catheter was flushed with heparin solution to prevent line clotting. […] Blood samples were collected by unhooking the flush syringe and letting the blood flow freely into centrifuge tubes at predetermined time points, i.e., 2, 5, 10, 15, 30, 45, 60, 90, 120 and 180 minutes after gavage. To each 100 μl of blood sample was added 400 μl of perchloric acid in a centrifuge tube. After vigorously vortexing, the samples in centrifuge tubes were spun down at 13,000 rpm for 10 min.
A striking difference was noted between the pharmacokinetic profiles of vanillin-thiazolidine and of unmodified vanillin.
Noncompartmental pharmacokinetic analysis was then carried out using WinNolin (Pharsight Inc., Mountain View, Calif.) and the results are summarized in Table 1, below. […] The maximum concentration at 2 minutes (Cmax) was also approximately 4 times higher in the former compared to the latter.

[3] = cited from earlier work
[4] = Hydrophobicity compared with vanillin; format: physicochemical
Excerpt: It is well known that vanillin can be extensively metabolized by intestinal bacteria and the liver (Strand and Scheline, supra). It is likely that the vanillin-derived thiazolidine is not easily metabolized by the same routes.

| SMILES | oxygen affinity of hemoglobin S (hemoglobin S) | oral bioavailability [1] | vanillin levels in the blood and half-life (FIG. 1 profile, in words) [2] | body and organ weights, hemotology, histopathology, test vs control rats ([3]; 1.0% of the diet for 16 weeks, 2.0% and 5.0% for 1 year, or 0.5%, 1.0% and 2.0% for 2 years) | toxicity on extended feeding ([3]; rats, vanillin at high levels for extensive periods) | hydrophobicity relative to vanillin [4] |
| --- | --- | --- | --- | --- | --- | --- |
| COc1cc(C=O)ccc1O [Vanillin, 4-hydroxy-3-methoxybenzaldehyde] | marked increase in oxygen affinity | poorly bioavailable | low with a short half-life | no significant differences | No toxicity was observed | – |
| CCOC(=O)C1CSC(c2ccc(O)c(OC)c2)N1 (stereo not shown) [Vanillin-Thiazolidine Adduct, Ethyl 2-(4-hydroxy-3-methoxyphenyl)-1,3-thiazolidine-4-carboxylate] | – | – | higher, with a much longer half-life | – | – | more hydrophobic than vanillin |
